Test results as given in publication PMC5983563, “Defining ICR-Mo, an intrinsic colistin resistance determinant from Moraxella osloensis” (PLoS Genetics, 2018).

Legend:
EptA = molecular target: T1, EptA (Neisseria gonorrhoeae, UniProt B4RMY8); assay: TLC of fluorescent lipid; type: biochemical; details: pH 7.5, 25°C, ~24 h, 0.2 mM substrate, 40 μM enzyme, 0.03% DDM
T1 construct: gene NGK_1498; full-length membrane protein, purified in DDM

ICR-Mo (AXE82_07515) = molecular target: T2, ICR-Mo (AXE82_07515) (Faucicola osloensis, UniProt A0A378QCY4); assay: TLC of fluorescent lipid, LC/MS; type: biochemical; details: pH 7.5, 25°C, ~24 h, 0.2 mM substrate, 40 μM enzyme, 0.03% DDM
T2 construct: gene eptA; full-length synthetic gene in pET21a, membrane protein, Ni-NTA purified in DDM, ~60 kDa
T2 sequence (A0A378QCY4 entry or part of it): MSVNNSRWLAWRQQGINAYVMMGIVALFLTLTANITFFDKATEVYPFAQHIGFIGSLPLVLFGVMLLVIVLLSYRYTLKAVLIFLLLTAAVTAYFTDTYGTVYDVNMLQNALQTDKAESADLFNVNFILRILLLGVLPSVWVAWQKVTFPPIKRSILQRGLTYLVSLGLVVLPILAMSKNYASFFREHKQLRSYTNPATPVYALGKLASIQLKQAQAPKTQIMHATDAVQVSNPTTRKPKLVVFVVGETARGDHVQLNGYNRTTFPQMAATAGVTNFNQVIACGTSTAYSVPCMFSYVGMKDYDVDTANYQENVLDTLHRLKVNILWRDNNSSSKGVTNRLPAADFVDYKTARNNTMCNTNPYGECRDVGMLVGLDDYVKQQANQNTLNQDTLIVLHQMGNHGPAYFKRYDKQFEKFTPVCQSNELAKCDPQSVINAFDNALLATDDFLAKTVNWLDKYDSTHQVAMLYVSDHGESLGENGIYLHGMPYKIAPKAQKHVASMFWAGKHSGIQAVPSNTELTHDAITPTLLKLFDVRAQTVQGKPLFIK

T1 sequence (B4RMY8 entry or part of it): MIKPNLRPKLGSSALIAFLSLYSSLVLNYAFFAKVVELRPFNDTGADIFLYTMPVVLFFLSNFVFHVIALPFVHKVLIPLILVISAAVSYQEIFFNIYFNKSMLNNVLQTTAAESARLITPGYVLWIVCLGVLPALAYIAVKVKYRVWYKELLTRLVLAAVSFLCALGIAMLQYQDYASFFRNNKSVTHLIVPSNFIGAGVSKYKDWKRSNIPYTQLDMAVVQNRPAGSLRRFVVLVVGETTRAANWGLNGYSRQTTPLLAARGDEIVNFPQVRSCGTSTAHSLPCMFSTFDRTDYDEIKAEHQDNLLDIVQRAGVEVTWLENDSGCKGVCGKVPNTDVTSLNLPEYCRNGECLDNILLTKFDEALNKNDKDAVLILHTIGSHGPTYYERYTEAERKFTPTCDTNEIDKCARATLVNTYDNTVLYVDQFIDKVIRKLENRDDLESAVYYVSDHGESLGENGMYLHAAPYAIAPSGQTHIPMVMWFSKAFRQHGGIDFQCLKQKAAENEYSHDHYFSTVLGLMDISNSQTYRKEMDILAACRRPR

CCCCCCCCCCCCCCCC(=O)OC[C@H](COP(=O)(O)OCCN)OC(=O)CCCCCCCCCCCNc1ccc([N+](=O)[O-])c2nonc12 [NBD-glycerol-3-PEA, 1-acyl-2-{12-[(7-nitro-2-1,3-benzoxadiazol-4-yl)amino]dodecanoyl}-sn-glycero-3-phosphoethanolamine]
TLC of fluorescent lipid (EptA): Minus denotes no addition of the enzyme of EptA/MCR-1/MCR-2/ICR-Mo
TLC of fluorescent lipid, LC/MS (ICR-Mo (AXE82_07515)): ICR-Mo displays an enzymatic activity of removing the PEA moiety from the lipid substrate
